# Results from patent US20140221346A1, “THERAPEUTIC COMPOUNDS” (Gilead Sciences, Inc., priority 2013, published 2014).
# Columns and labels:
# HIV-IIIb = test: Test A: Antiviral Assay in MT4 Cells; assay type: cell-based, HIV-1; details: Human immunodeficiency virus 1, IIIB, MT4, 120 h, read-out: % inhibition at 3 μM
# Procedure: (§1) For the antiviral assay, 40 μL of 1× test concentration of 3-fold serially diluted compound in culture medium with 10% FBS was added to each well of a 384-well plate (10 concentrations) in quadruplicate. MT-4 cells were next mixed with HIV-IIIb at an m.o.i of 0.003 for 1 hour, after which time 35 μL of virus/cell mixture (2000 cells) was immediately added to each well containing 40 μL of diluted compound. The plates were then incubated at 37° C. for 5 days. After 5 days of incubation, 25 μl of 2× concentrated CellTiter-Glo™ Reagent (catalog #G7571, Promega Biosciences, Inc., Madison, Wis.) was added to each well containing MT-4 cells. Cell lysis was carried out by incubating at room temperature for 10 min and then chemiluminescence was read.
# [1] = Test B: Cytotoxicity Assay; assay type: cell-based; details: human, uninfected MT-4 cells, same protocol as Test A, CellTiter-Glo
# Procedure: as §1
# Compound cytotoxicity and the corresponding CC50 values was determined using the same protocol as described in the antiviral assay (Test A) except that uninfected cells were used.
SMILES,inhibition at 3 µM (HIV-IIIb) [%],CC50 at 5 days [1] [µM]
"COCCNc1ncc(-c2ccc(F)c(C(N)=O)c2)c([C@@H](Cc2cc(F)cc(F)c2)NC(=O)Cn2nc(C(F)(F)F)c3c2CCCC3)n1 [Compound 11J, (R)-5-(4-(2-(3,5-difluorophenyl)-1-(2-(3-(trifluoromethyl)-4,5,6,7-tetrahydro-1H-indazol-1-yl)acetamido)ethyl)-2-((2-methoxyethyl)amino)pyrimidin-5-yl)-2-fluorobenzamide]",0,16.3
"NC(=O)c1cc(-c2cnc(NCCO)nc2[C@H](Cc2cc(F)cc(F)c2)NC(=O)Cn2nc(C(F)F)c3c2C(F)(F)CCC3(F)F)ccc1F [Compound 26, (S)-5-(4-(1-(2-(3-(difluoromethyl)-4,4,7,7-tetrafluoro-4,5,6,7-tetrahydro-1H-indazol-1-yl)acetamido)-2-(3,5-difluorophenyl)ethyl)-2-((2-hydroxyethyl)amino)pyrimidin-5-yl)-2-fluorobenzamide]",86,19.9
"Nc1ccc(-c2cccc(CO)c2)c(C(Cc2cc(F)cc(F)c2)NC(=O)Cc2c[nH]c3ccc(F)cc23)n1 (centres unmarked) [Compound 6, N-(1-(6-amino-3-(3-(hydroxymethyl)phenyl)pyridin-2-yl)-2-(3,5-difluorophenyl)ethyl)-2-(5-fluoro-1H-indol-3-yl)acetamide]",59,14.4
"Nc1ccc(-c2cccc(OCC(F)(F)F)c2)c(C(Cc2cc(F)cc(F)c2)NC(=O)Cc2c[nH]c3ccc(F)cc23)n1 (centres unmarked) [Compound 8, N-(1-(6-amino-3-(3-(2,2,2-trifluoroethoxy)phenyl)pyridin-2-yl)-2-(3,5-difluorophenyl)ethyl)-2-(5-fluoro-1H-indol-3-yl)acetamide]",50,11.7
"NC(=O)c1cc(-c2cnc(N3CCC(=O)CC3)nc2[C@H](Cc2cc(F)cc(F)c2)NC(=O)Cn2nc(C(F)F)c3c2C(F)(F)CCC3(F)F)ccc1F [Compound 19C, (S)-5-(4-(1-(2-(3-(difluoromethyl)-4,4,7,7-tetrafluoro-4,5,6,7-tetrahydro-1H-indazol-1-yl)acetamido)-2-(3,5-difluorophenyl)ethyl)-2-(4-oxopiperidin-1-yl)pyrimidin-5-yl)-2-fluorobenzamide]",26,> 51.5
"NC(=O)c1cc(-c2cnc(NCCN3CCOCC3)nc2[C@H](Cc2cc(F)cc(F)c2)NC(=O)Cn2nc(C(F)F)c3c2C(F)(F)CCC3(F)F)ccc1F [Compound 28, (S)-5-(4-(1-(2-(3-(difluoromethyl)-4,4,7,7-tetrafluoro-4,5,6,7-tetrahydro-1H-indazol-1-yl)acetamido)-2-(3,5-difluorophenyl)ethyl)-2-((2-morpholinoethyl)amino)pyrimidin-5-yl)-2-fluorobenzamide]",81,14.1
"CN(C)CCNc1ncc(-c2ccc(F)c(C(N)=O)c2)c([C@H](Cc2cc(F)cc(F)c2)NC(=O)Cn2nc(C(F)F)c3c2C(F)(F)CCC3(F)F)n1 [Compound 16B, (S)-5-(4-(1-(2-(3-(difluoromethyl)-4,4,7,7-tetrafluoro-4,5,6,7-tetrahydro-1H-indazol-1-yl)acetamido)-2-(3,5-difluorophenyl)ethyl)-2-((2-(dimethylamino)ethyl)amino)pyrimidin-5-yl)-2-fluorobenzamide]",41,15.4
"COc1cc(-c2ccc(N)nc2C(Cc2cc(F)cc(F)c2)NC(=O)Cc2c[nH]c3ccc(F)cc23)ccn1 (centres unmarked) [Compound 10, N-(1-(6-amino-2′-methoxy-[3,4′-bipyridin]-2-yl)-2-(3,5-difluorophenyl)ethyl)-2-(5-fluoro-1H-indol-3-yl)acetamide]",38,23.8
"NC(=O)c1cc(-c2ccc(N)nc2[C@@H](Cc2cc(F)cc(F)c2)NC(=O)Cc2c[nH]c3ccc(F)cc23)ccc1F [Compound 2, (R)-5-(6-amino-2-(2-(3,5-difluorophenyl)-1-(2-(5-fluoro-1H-indol-3-yl)acetamido)ethyl)pyridin-3-yl)-2-fluorobenzamide]",0,25.2
"NC(=O)c1cc(-c2cnc(NCC3CC3)nc2[C@H](Cc2cc(F)cc(F)c2)NC(=O)Cn2nc(C(F)F)c3c2C(F)(F)CCC3(F)F)ccc1F [Compound 13B, (S)-5-(2-((cyclopropylmethyl)amino)-4-(1-(2-(3-(difluoromethyl)-4,4,7,7-tetrafluoro-4,5,6,7-tetrahydro-1H-indazol-1-yl)acetamido)-2-(3,5-difluorophenyl)ethyl)pyrimidin-5-yl)-2-fluorobenzamide]",42,7.72
"COCCOCCNc1ncc(-c2ccc(F)c(C(N)=O)c2)c([C@H](Cc2cc(F)cc(F)c2)NC(=O)Cn2nc(C(F)F)c3c2C(F)(F)CCC3(F)F)n1 [Compound 17B, (S)-5-(4-(1-(2-(3-(difluoromethyl)-4,4,7,7-tetrafluoro-4,5,6,7-tetrahydro-1H-indazol-1-yl)acetamido)-2-(3,5-difluorophenyl)ethyl)-2-((2-(2-methoxyethoxy)ethyl)amino)pyrimidin-5-yl)-2-fluorobenzamide]",83,48.8
"Nc1ccc(-c2ccc(Cl)cc2)c(C(Cc2cc(F)cc(F)c2)NC(=O)Cc2c[nH]c3ccc(F)cc23)n1 (centres unmarked) [Compound 3, N-(1-(6-amino-3-(4-chlorophenyl)pyridin-2-yl)-2-(3,5-difluorophenyl)ethyl)-2-(5-fluoro-1H-indol-3-yl)acetamide]",87,9.34
"NC(=O)c1cc(-c2ccc(N)nc2[C@H](Cc2cc(F)cc(F)c2)NC(=O)Cc2c[nH]c3ccc(F)cc23)ccc1F [Compound 1H, (S)-5-(6-amino-2-(2-(3,5-difluorophenyl)-1-(2-(5-fluoro-1H-indol-3-yl)acetamido)ethyl)pyridin-3-yl)-2-fluorobenzamide]",98,22.1
